Several values for one entry are separate records, joined by “and”; a condition that tells them apart may be missing. Equal values may be shown once.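 The compound was tested at five concentrations on cells cultured in 96-well plates, with a 48-hour exposure period. GI50 marks 50% less growth. Definition used: TGI = concentration required for complete inhibition of growth.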
Legend:
Test in all cases: NCI anticancer screen, dose series, 48 h
[1] = test system: 786-0 renal
[2] = test system: A498 renal
[3] = test system: CAKI-1 renal
[4] = test system: DU-145 prostate
[5] = test system: HCT-15 colon
[6] = test system: IGROV1 ovarian
[7] = test system: NCI-H460 lung
[8] = test system: OVCAR-3 ovarian
[9] = test system: PC-3 prostate
[10] = test system: SNB-19 CNS

Compound	TGI [1]	TGI [2]	TGI [3]	TGI [4] [µM]	TGI [5]	TGI [6]	TGI [7]	TGI [8]	TGI [9]	TGI [10] [µM]	GI50 [1] [µM]	GI50 [2] [µM]	GI50 [3] [µM]	GI50 [4] [µM]	GI50 [5]	GI50 [6]	GI50 [7] [µM]	GI50 [8]	GI50 [9]	GI50 [10] [µM]
COc1ccc(NCc2c(O)ccc3ccccc23)cc1	32 µM	> 100 µM	67.1 µM	> 100	> 100 µM	> 100 µM	> 100 µM	> 100 µM	49.9 µM	> 100	–	–	–	–	–	–	–	–	–	–
COc1ccc(Cn2cc3c(c2-c2ccccc2)CCc2cncnc2-3)cc1	38.5 µM	17.4 µM	17.5 µM	33.7	16.5 µM	23.9 µM	13.1 µM	12.5 µM	31.1 µM	25	10.1	4.87	3.55	14.2	4.3 µM	5.8 µM	3.48	3.65 µM	8.71 µM	10.2
CN(C)CCC(=O)NCc1c2nc3ccccc3nc2n2ccccc12	45.9 µM	88.1 µM	> 100 µM	> 100	> 100 µM	28.4 µM	> 100 µM	> 100 µM	> 100 µM	> 100	19	22	60.6	12.3	48.4 µM	0.338 µM	42.5	> 100 µM	33.5 µM	52.9
CC(=O)OC1C/C(C)=C/[C@H](O)CC(C)/C=C/[C@@]2(C)CCC(C(C)(C)O)C12 (stereo partly specified)	> 100 µM	> 100 µM	> 100 µM	–	> 100 µM	> 100 µM	> 100 µM	> 100 µM	–	> 100	–	–	–	–	–	–	–	–	–	–
COc1ccc(Cn2c3c(c4c(O)cccc42)C(=O)c2ccccc2-3)cc1	16.7 µM	–	29.6 µM	24.9	89.8 µM	> 100 µM	36.5 µM	28.7 µM	25.4 µM	23.4	4.02	–	14.9	12.5	16.1 µM	11.2 µM	12.8	14.3 µM	12.8 µM	6.05
Cc1cccc(NC(=O)Cc2nc3ccccc3s2)c1C	> 100 µM	> 100 µM	> 100 µM	–	> 100 µM	> 100 µM	> 100 µM	> 100 µM	–	> 100	–	–	–	–	–	–	–	–	–	–
Cc1ccc(C(=O)Nc2ccccc2C(=O)N/N=C(\c2ccccc2)c2ccccn2)cc1	> 100 µM	–	> 100 µM	> 100	> 100 µM	> 100 µM	> 100 µM	> 100 µM	> 100 µM	> 100	0.362	0.63	0.324	0.434	0.06 µM	0.177 µM	0.211	0.211 µM	1.1 µM	0.554
C=C(CN(CCN1CCOCC1)CC(=C)c1ccc(C(=O)Nc2ccccc2N)cc1)c1ccc(C(=O)Nc2ccccc2N)cc1	6.65 µM	–	34.6 µM	15.7	43.9 µM	29.1 µM	> 50 µM	39.8 µM	> 50 µM	33.4	1.07	–	9.45	6.88	10.5 µM	7.37 µM	8.72	10.1 µM	15 µM	9.18
CN(C)C(=S)/N=c1\ssc(=S)n1Cc1ccccn1	29.1 µM	> 81.4 µM	> 100 µM	–	> 100 µM	> 100 µM	16.8 µM	11.3 µM	–	> 100	–	–	–	–	–	–	–	–	–	–
COc1ccc(CC(C#N)c2cc(OC)c(OC)c(OC)c2)cc1 (stereo unspecified)	> 100 µM	–	> 81 µM	1.82	11 µM	> 100 µM	21 µM	0.113 µM	> 100 µM	> 100	–	–	–	–	–	–	–	–	–	–
COc1cc(C(=O)/C=C/c2c(-c3cccs3)nc3ccccn23)cc(OC)c1OC	7.07 µM	> 100 µM	8.14 µM	4.81	5.31 µM	3.73 µM	2.84 µM	5.36 µM	–	5.56	2.31	0.987	2.31	1.9	1.6 µM	1.89 µM	1.42	2.44 µM	–	2.1
O/N=C1/C(=C/c2ccc(Cl)cc2)CCCC1C(NO)c1ccc(Cl)cc1 (stereo unspecified)	42.7 µM	38.9 µM	53.5 µM	–	46.8 µM	> 100 µM	35.3 µM	31 µM	–	76.6	–	–	–	–	–	–	–	–	–	–
C[n+]1ccc2[nH]c3ccccc3c2c1	> 100 µM	> 100 µM	> 100 µM	–	> 100 µM	> 100 µM	> 100 µM	> 100 µM	–	> 100	–	–	–	–	–	–	–	–	–	–
CCN1CCN(c2nc(C)cc(N(CCCNc3ccnc4cc(Cl)ccc34)Cc3ccco3)n2)CC1	4.15 µM	49.1 µM	–	19.7	11.6 µM	15.4 µM	12.9 µM	20.3 µM	22 µM	17.5	1.85	6.53	–	5.89	2.34 µM	3.38 µM	3.73	4.29 µM	6.87 µM	4.78
Cn1c(=O)c2[nH]cnc2n(CC(=O)O)c1=O	> 100 µM	> 100 µM	> 100 µM	–	> 100 µM	> 100 µM	> 100 µM	> 100 µM	–	> 100	–	–	–	–	–	–	–	–	–	–
O=C1C(Cl)=C(Nc2ccc3c(c2NC2=C(Cl)C(=O)c4ccccc4C2=O)C(=O)c2ccccc2C3=O)C(=O)c2ccccc21	9.6 µM	4.2 µM	–	2.97	4.19 µM	4.25 µM	5.85 µM	7.03 µM	12.5 µM	10.3	2.91	2.02	–	1.57	1.62 µM	1.62 µM	1.86	1.78 µM	1.92 µM	2.74
Cc1cc(Cl)ccc1Nc1nc(C(F)(F)F)ccc1C(=O)N/N=C/c1ccc(N(C)C)cc1	> 100 µM	> 100 µM	8.52 µM	8.86	> 100 µM	9.11 µM	> 100 µM	> 100 µM	–	> 100	0.997	2.59	0.404	0.915	0.481 µM	2.03 µM	1.57	0.563 µM	–	3.08
COC(=O)NN=C1C(C)(C)C(=NNC(=O)OC)C1(C)C	> 100 µM	> 100 µM	> 100 µM	–	> 100 µM	> 100 µM	> 100 µM	> 100 µM	–	> 100	–	–	–	–	–	–	–	–	–	–
CCOC(CN(C)C(=O)OCC(Cl)(Cl)Cl)OCC	> 100 µM	–	> 100 µM	> 100	> 100 µM	> 100 µM	> 100 µM	> 100 µM	> 100 µM	> 100	–	–	–	–	–	–	–	–	–	–
CO[C@@]12[C@H](COC(N)=O)C3=C(C(=O)C(C)=C(N)C3=O)N1C[C@@H]1N[C@@H]12	4.99 µM and 10.2 µM and 4.74 µM	2.68 µM and 2.64 µM	6.18 µM and 25 µM and 3.07 µM	–	10.4 µM and 16.4 µM and 43.4 µM	8.88 µM and 8.21 µM and 5.97 µM	1.03 µM and 1.48 µM	8.8 µM and 14.4 µM and 34.4 µM	17.4 µM and 20 µM and 25.7 µM	–	0.717	1.05	–	–	1.92 µM and 1.67 µM	3.24 µM and 1.5 µM	–	5.79 µM and 3.66 µM	2.65 µM and 4.99 µM	–
ClC1=C(Cl)C(Cl)=C(Cl)C1=Cc1ccc(Cl)cc1Cl	0.618 µM	2.6 µM	–	3.52	1.3 µM	3.19 µM	–	0.857 µM	1.64 µM	2.93	0.241	1.27	–	0.718	0.3 µM	0.404 µM	–	0.274 µM	0.393 µM	0.811
NC(=O)C12CCC1C1CCCCC12N1CCOCC1 (stereo unspecified)	> 100 µM	> 100 µM	> 100 µM	–	> 100 µM	> 100 µM	> 100 µM	> 100 µM	–	> 100	–	–	–	–	–	–	–	–	–	–
CC(=O)[CH-]C(=O)c1ccccc1.CC(=O)[CH-]C(=O)c1ccccc1.CC[O-].O=C1C=C([O-])C(=O)c2ccccc21.[Ti+4]	> 100 µM	> 100 µM	> 100 µM	–	> 100 µM	> 100 µM	> 100 µM	> 100 µM	–	> 100	> 100	81.1	> 100	–	56.2 µM	> 100 µM	71.9	42.6 µM	–	> 100
CSc1ccc(C(=O)/C=C/c2ccc(F)cc2)cc1	> 100 µM	95.5 µM	> 100 µM	> 100	> 100 µM	65.9 µM	> 100 µM	–	> 100 µM	> 100	> 100	26.7	> 100	54.8	29.4 µM	28.2 µM	70.2	–	49.9 µM	> 100
CN(C)NC(=S)NC12CC3CC(CC(C3)C1)C2	> 100 µM	> 100 µM	> 100 µM	–	> 100 µM	> 100 µM	> 100 µM	> 100 µM	–	> 100	–	–	–	–	–	–	–	–	–	–

— PubChem BioAssay (NCI)
